Test results: PMC5224920, “Assessing the mechanism and therapeutic potential of modulators of the human Mediator complex-associated protein kinases” (eLife, 2016)

System: 12 single or co-culture in vitro tissue models of primary cells
Test: Culture/co-culture cell model panel, extracellular biomarkers (DiscoveRx); as to CCL2/MCP-1: reference of the scale not given here; as to CXCL8/IL-8: reference of the scale not given here; as to CXCL9/MIG: reference of the scale not given here; as to IL-1alpha: reference of the scale not given here; as to PBMC Cytotoxicity: reference of the scale not given here; as to SRB: reference of the scale not given here
Type: cell-based, human

`Cc1n[nH]c2ncc(C(=O)N3CCC[C@H]3c3ccc(Cl)cc3)cc12` [CMPD4] gave a tPA (BENo, 3.70E2 nM) of -0.062, a uPA (BENo, 3.70E2 nM) of -0.019 and a CCL26/Eotaxin-3 (BENo, 4.12E1 nM) of 0.012. For the same molecule, the CD54/ICAM-1 (BENo, 4.12E1 nM) was -0.077, the CD87/uPAR (BENo, 4.12E1 nM) was -0.027 and the CXCL8/IL-8 (BENo, 4.12E1 nM) was 0.020. The CXCL9/MIG (BENo, 4.12E1 nM) was -0.004, the CXCL10/IP-10 (BENo, 4.12E1 nM) was -0.033 and the CXCL11/I-TAC (BENo, 4.12E1 nM) was -0.036. It also gave an EGFR (BENo, 4.12E1 nM) of 0.00426, an HLA-DR (BENo, 4.12E1 nM) of -0.016 and an IL-1alpha (BENo, 4.12E1 nM) of 0.010. For the same molecule, the “Keratin 8/18” value (BENo, 4.12E1 nM) was -0.010, the MMP-1 (BENo, 4.12E1 nM) was -0.031 and the MMP-9 (BENo, 4.12E1 nM) was -0.003. It also gave a PAI-I (BENo, 4.12E1 nM) of -0.067, an SRB (BENo, 4.12E1 nM) of 0.00253 and a tPA (BENo, 4.12E1 nM) of -0.061. For the same molecule, the uPA (BENo, 4.12E1 nM) was -0.015, the CCL26/Eotaxin-3 (BENo, 4.57E0 nM) was 0.029 and the CD54/ICAM-1 (BENo, 4.57E0 nM) was -0.040. The CD87/uPAR (BENo, 4.57E0 nM) was 0.028, the CXCL8/IL-8 (BENo, 4.57E0 nM) was 0.039 and the CXCL9/MIG (BENo, 4.57E0 nM) was 0.050. It also gave a CXCL10/IP-10 (BENo, 4.57E0 nM) of 0.057, a CXCL11/I-TAC (BENo, 4.57E0 nM) of -0.035 and an EGFR (BENo, 4.57E0 nM) of 0.015. The HLA-DR (BENo, 4.57E0 nM) was 0.068, the IL-1alpha (BENo, 4.57E0 nM) was -0.00546 and the “Keratin 8/18” value (BENo, 4.57E0 nM) was -0.020. For the same molecule, the MMP-1 (BENo, 4.57E0 nM) was -0.009, the MMP-9 (BENo, 4.57E0 nM) was -0.020 and the PAI-I (BENo, 4.57E0 nM) was -0.00037. It also gave an SRB (BENo, 4.57E0 nM) of 0.018, a tPA (BENo, 4.57E0 nM) of 0.003 and a uPA (BENo, 4.57E0 nM) of -0.020. For the same molecule, the CCL2/MCP-1 (BF4T, 1.00E4 nM) was -0.010, the CCL26/Eotaxin-3 (BF4T, 1.00E4 nM) was -0.144 and the CD54/ICAM-1 (BF4T, 1.00E4 nM) was -0.092. The CD90 (BF4T, 1.00E4 nM) was -0.00366, the CD106/VCAM-1 (BF4T, 1.00E4 nM) was -0.026 and the CXCL8/IL-8 (BF4T, 1.00E4 nM) was 0.017. The IL-1alpha (BF4T, 1.00E4 nM) was -0.039, the “Keratin 8/18” value (BF4T, 1.00E4 nM) was -0.020 and the MMP-1 (BF4T, 1.00E4 nM) was -0.016. It also gave an MMP-3 (BF4T, 1.00E4 nM) of 0.014, an MMP-9 (BF4T, 1.00E4 nM) of -0.031 and a PAI-I (BF4T, 1.00E4 nM) of -0.059. The SRB (BF4T, 1.00E4 nM) was 0.004, the tPA (BF4T, 1.00E4 nM) was -0.022 and the uPA (BF4T, 1.00E4 nM) was -0.009. The CCL2/MCP-1 (BF4T, 1.11E3 nM) was -0.045, the CCL26/Eotaxin-3 (BF4T, 1.11E3 nM) was -0.209 and the CD54/ICAM-1 (BF4T, 1.11E3 nM) was -0.086. The CD90 (BF4T, 1.11E3 nM) was -0.00131, the CD106/VCAM-1 (BF4T, 1.11E3 nM) was -0.021 and the CXCL8/IL-8 (BF4T, 1.11E3 nM) was -0.056. The IL-1alpha (BF4T, 1.11E3 nM) was -0.038, the “Keratin 8/18” value (BF4T, 1.11E3 nM) was 0.020 and the MMP-1 (BF4T, 1.11E3 nM) was -0.016. The MMP-3 (BF4T, 1.11E3 nM) was -0.0065, the MMP-9 (BF4T, 1.11E3 nM) was -0.011 and the PAI-I (BF4T, 1.11E3 nM) was -0.00269. The SRB (BF4T, 1.11E3 nM) was 0.011, the tPA (BF4T, 1.11E3 nM) was 0.007 and the uPA (BF4T, 1.11E3 nM) was -0.016. The CCL2/MCP-1 (BF4T, 1.23E2 nM) was -0.067, the CCL26/Eotaxin-3 (BF4T, 1.23E2 nM) was -0.191 and the CD54/ICAM-1 (BF4T, 1.23E2 nM) was -0.058. It also gave a CD90 (BF4T, 1.23E2 nM) of -0.00126, a CD106/VCAM-1 (BF4T, 1.23E2 nM) of -0.012 and a CXCL8/IL-8 (BF4T, 1.23E2 nM) of -0.021. The IL-1alpha (BF4T, 1.23E2 nM) was -0.020, the “Keratin 8/18” value (BF4T, 1.23E2 nM) was -0.022 and the MMP-1 (BF4T, 1.23E2 nM) was 0.00135. The MMP-3 (BF4T, 1.23E2 nM) was -0.007, the MMP-9 (BF4T, 1.23E2 nM) was -0.047 and the PAI-I (BF4T, 1.23E2 nM) was -0.013. It also gave an SRB (BF4T, 1.23E2 nM) of 0.00469, a tPA (BF4T, 1.23E2 nM) of 0.032 and a uPA (BF4T, 1.23E2 nM) of 0.00319. It also gave a CCL2/MCP-1 (BF4T, 1.37E1 nM) of 0.00746, a CCL26/Eotaxin-3 (BF4T, 1.37E1 nM) of -0.134 and a CD54/ICAM-1 (BF4T, 1.37E1 nM) of -0.057. It also gave a CD90 (BF4T, 1.37E1 nM) of -0.011, a CD106/VCAM-1 (BF4T, 1.37E1 nM) of -0.028 and a CXCL8/IL-8 (BF4T, 1.37E1 nM) of -0.024. For the same molecule, the IL-1alpha (BF4T, 1.37E1 nM) was -0.024, the “Keratin 8/18” value (BF4T, 1.37E1 nM) was -0.00271 and the MMP-1 (BF4T, 1.37E1 nM) was -0.015. It also gave an MMP-3 (BF4T, 1.37E1 nM) of 0.049, an MMP-9 (BF4T, 1.37E1 nM) of -0.026 and a PAI-I (BF4T, 1.37E1 nM) of -0.020. For the same molecule, the SRB (BF4T, 1.37E1 nM) was 0.005, the tPA (BF4T, 1.37E1 nM) was 0.049 and the uPA (BF4T, 1.37E1 nM) was 0.009. The CCL2/MCP-1 (BF4T, 3.33E3 nM) was -0.061, the CCL26/Eotaxin-3 (BF4T, 3.33E3 nM) was -0.184 and the CD54/ICAM-1 (BF4T, 3.33E3 nM) was -0.074. It also gave a CD90 (BF4T, 3.33E3 nM) of 0.011, a CD106/VCAM-1 (BF4T, 3.33E3 nM) of 0.002 and a CXCL8/IL-8 (BF4T, 3.33E3 nM) of -0.042. For the same molecule, the IL-1alpha (BF4T, 3.33E3 nM) was -0.055, the “Keratin 8/18” value (BF4T, 3.33E3 nM) was -0.022 and the MMP-1 (BF4T, 3.33E3 nM) was -0.012. For the same molecule, the MMP-3 (BF4T, 3.33E3 nM) was -0.048, the MMP-9 (BF4T, 3.33E3 nM) was -0.00425 and the PAI-I (BF4T, 3.33E3 nM) was -0.026. For the same molecule, the SRB (BF4T, 3.33E3 nM) was 0.006, the tPA (BF4T, 3.33E3 nM) was 0.015 and the uPA (BF4T, 3.33E3 nM) was -0.019. For the same molecule, the CCL2/MCP-1 (BF4T, 3.70E2 nM) was -0.039, the CCL26/Eotaxin-3 (BF4T, 3.70E2 nM) was -0.177 and the CD54/ICAM-1 (BF4T, 3.70E2 nM) was -0.076. For the same molecule, the CD90 (BF4T, 3.70E2 nM) was -0.00567, the CD106/VCAM-1 (BF4T, 3.70E2 nM) was -0.004 and the CXCL8/IL-8 (BF4T, 3.70E2 nM) was -0.042. The IL-1alpha (BF4T, 3.70E2 nM) was -0.090, the “Keratin 8/18” value (BF4T, 3.70E2 nM) was -0.012 and the MMP-1 (BF4T, 3.70E2 nM) was -0.008. It also gave an MMP-3 (BF4T, 3.70E2 nM) of 0.015, an MMP-9 (BF4T, 3.70E2 nM) of -0.018 and a PAI-I (BF4T, 3.70E2 nM) of 0.003. It also gave an SRB (BF4T, 3.70E2 nM) of 3.34e-5, a tPA (BF4T, 3.70E2 nM) of 0.027 and a uPA (BF4T, 3.70E2 nM) of -0.022. The CCL2/MCP-1 (BF4T, 4.12E1 nM) was -0.019, the CCL26/Eotaxin-3 (BF4T, 4.12E1 nM) was -0.203 and the CD54/ICAM-1 (BF4T, 4.12E1 nM) was -0.044. It also gave a CD90 (BF4T, 4.12E1 nM) of 0.0044, a CD106/VCAM-1 (BF4T, 4.12E1 nM) of -0.036 and a CXCL8/IL-8 (BF4T, 4.12E1 nM) of -0.031. The IL-1alpha (BF4T, 4.12E1 nM) was -0.038, the “Keratin 8/18” value (BF4T, 4.12E1 nM) was 0.00849 and the MMP-1 (BF4T, 4.12E1 nM) was -0.002. For the same molecule, the MMP-3 (BF4T, 4.12E1 nM) was 0.027, the MMP-9 (BF4T, 4.12E1 nM) was -0.011 and the PAI-I (BF4T, 4.12E1 nM) was -0.009. For the same molecule, the SRB (BF4T, 4.12E1 nM) was 0.000731, the tPA (BF4T, 4.12E1 nM) was 0.025 and the uPA (BF4T, 4.12E1 nM) was -0.00027. For the same molecule, the CCL2/MCP-1 (BF4T, 4.57E0 nM) was 0.041, the CCL26/Eotaxin-3 (BF4T, 4.57E0 nM) was -0.086 and the CD54/ICAM-1 (BF4T, 4.57E0 nM) was -0.034. The CD90 (BF4T, 4.57E0 nM) was -0.000153, the CD106/VCAM-1 (BF4T, 4.57E0 nM) was -0.018 and the CXCL8/IL-8 (BF4T, 4.57E0 nM) was 0.024. The IL-1alpha (BF4T, 4.57E0 nM) was -0.020, the “Keratin 8/18” value (BF4T, 4.57E0 nM) was -0.00266 and the MMP-1 (BF4T, 4.57E0 nM) was 0.000794. The MMP-3 (BF4T, 4.57E0 nM) was 0.054, the MMP-9 (BF4T, 4.57E0 nM) was -0.023 and the PAI-I (BF4T, 4.57E0 nM) was 0.019. For the same molecule, the SRB (BF4T, 4.57E0 nM) was -0.008, the tPA (BF4T, 4.57E0 nM) was 0.057 and the uPA (BF4T, 4.57E0 nM) was -0.00538. The “B cell Proliferation” value (BT, 1.00E4 nM) was -0.013, the “PBMC Cytotoxicity” value (BT, 1.00E4 nM) was -0.020 and the “Secreted IgG” value (BT, 1.00E4 nM) was -0.332. The sIL-2 (BT, 1.00E4 nM) was 0.00561, the sIL-6 (BT, 1.00E4 nM) was -0.027 and the sIL-17A (BT, 1.00E4 nM) was 0.321. It also gave a sIL-17F (BT, 1.00E4 nM) of -0.397.
